According to patent publication US6461997B1, “Triazole sulfones having herbicidal activity” (Monsanto Technology LLC, priority 1999, dated 2002):

Legend:
SOLNI (black nightshade) = assay: Pre-emergence herbicidal activity, warm season; type: in vivo, Solanum nigrum; details: GR80 = lowest tested rate (300, 100, 30, 10 g/ha) with 80% or greater inhibition; approx. 14 days after treating; 30/21° C.
How it was run: (§1)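 Seeds sown in sterilised fertilised topsoil received surface-applied compound in 50:50 acetone/water, typically at 300, 100, 30 and 10 g/ha, then greenhouse-grown at 30/21° C (warm-season species) or 18/13° C (cool-season species). Percent inhibition versus untreated plants was scored at about 14 days, giving GR80; an asterisk marks activity short of 80% at the top rate.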

[1] = system: GALAP (catchweed bedstraw); assay: Pre-emergence herbicidal activity, cool season; type: in vivo, Galium aparine; details: lowest tested rate with 80% or greater inhibition; rates 300, 100, 30, 10 g/ha; about 14 days
How it was run: as §1

SINAR (wild mustard) [2] = assay: Pre-emergence herbicidal activity, cool season; type: in vivo, Sinapis arvensis; details: lowest tested rate with 80% or greater inhibition; rates 300, 100, 30, 10 g/ha; about 14 days
How it was run: as §1

SASKR (russian thistle) = assay: Pre-emergence herbicidal activity, cool season; type: in vivo, Salsola kali; details: lowest tested rate with 80% or greater inhibition; rates 300, 100, 30, 10 g/ha; about 14 days
How it was run: as §1

[3] = system: LAMPU (purple deadnettle); assay: Pre-emergence herbicidal activity, cool season; type: in vivo, Lamium purpureum; details: lowest tested rate with 80% or greater inhibition; rates 300, 100, 30, 10 g/ha; about 14 days
How it was run: as §1

AMARE (redroot pigweed) = assay: Pre-plant incorporated (PPI) herbicidal activity, warm season; type: in vivo, Amaranthus retroflexus
Procedure: (§2) In another set of tests, the pre-plant incorporated (PPI) activity of compounds of this invention was evaluated on the same species as for the pre-emergence tests described above. In the PPI tests the following procedure, designed to simulate PPI application, was used.
(§3) A pre-prepared topsoil mixture (described above) was placed in a pot and compacted to a depth of 1.0 to 1.25 cm from the top of the pot. Seeds of each of several monocotyledonous and dicotyledonous annual plant species were placed on top of the soil. A sufficient quantity of soil to cover the seeds and level fill the pot was weighed into an open container. A known amount of the test compound was dissolved or suspended in an organic solvent and applied by spraying to this cover soil. The cover soil was thoroughly mixed to distribute the test compound throughout the cover soil, and was then applied as a cover layer over the seeds. Untreated soil was used as a cover layer for control pots. After treatment the plants were placed in a greenhouse where they received 0.64 cm of overhead irrigation. All subsequent watering consisted of a light overhead mist and/or subirrigation as needed for germination and growth. Tables 9 and 10 below relate to warm season plant species which were placed after pre-emergence treatment in a greenhouse with a 30/21° C. day/night temperature regime. Tables 11 and 12 below relates to cool season plant species placed after pre-emergence treatment in a greenhouse or growth chamber with an 18/13° C. day/night temperature regime. Only the compounds of Examples 1, 6, 8, 11, 13 and 15-20 were included in PPI tests.
(§4) Approximately 14 days after planting and treating, the plants were observed and herbicidal efficacy recorded as percent inhibition by comparison with untreated plants.

DATST (jimsonweed) = assay: as above; type: in vivo, Datura stramonium
Procedure: as §2, §3, §4

[4] = system: PANMI (wild proso millet); assay: as above; type: in vivo, Panicum miliaceum
Procedure: as §2, §3, §4

PANDI (fall panicum) = assay: as above; type: in vivo, Panicum dichotomiflorum
Procedure: as §2, §3, §4

POLCO (wild buckwheat) = assay: Pre-plant incorporated (PPI) herbicidal activity, cool season; type: in vivo, Polygonum convolvulus
Procedure: as §2, §3, §4

SINAR (wild mustard) [5] = assay: as above; type: in vivo, Sinapis arvensis
Procedure: as §2, §3, §4

ALOMY (blackgrass) = assay: as above; type: in vivo, Alopecurus myosuroides
Procedure: as §2, §3, §4

BROTE (downy brome) = assay: as above; type: in vivo, Bromus tectorum
Procedure: as §2, §3, §4

[6] = pre-plant incorporated, GR80 = lowest tested rate with 80% or greater inhibition, approx. 14 days after treating, 30/21° C.
[7] = pre-plant incorporated, lowest tested rate with 80% or greater inhibition, about 14 days
[8] = weed, PPI application, 100 g/ha
[9] = weed, PPI application, 300 g/ha
[10] = weed, PPI application, 900 g/ha

SMILES: CCSC(F)(F)S(=O)(=O)c1ncn(C(=O)N(CC)CC)n1 [Example 8, 1-(N,N-diethylcarbamoyl)-3-[difluoro(ethylthio)methylsulfonyl]-1,2,4-triazole]
- Pre-emergence activity (GR80) SOLNI (SOLNI (black nightshade)): 100 g/ha
- Pre-emergence activity GR80, GALAP [1]: [empty]
- Pre-emergence activity GR80, SINAR (SINAR (wild mustard) [2]): [empty]
- Pre-emergence activity GR80, SASKR (SASKR (russian thistle)): 300 g/ha
- Pre-emergence activity GR80, LAMPU [3]: [empty]
- inhibition at 30 g/ha (AMARE (redroot pigweed); Amaranthus retroflexus, PPI application, 30 g/ha, read-out: Percent inhibition AMARE): 100%
- inhibition at 100 g/ha (AMARE (redroot pigweed); Amaranthus retroflexus, PPI application, 100 g/ha, read-out: Percent inhibition AMARE): 100%
- inhibition at 300 g/ha (AMARE (redroot pigweed); Amaranthus retroflexus, PPI application, 300 g/ha, read-out: Percent inhibition AMARE): 100%
- inhibition at 900 g/ha (AMARE (redroot pigweed); Amaranthus retroflexus, PPI application, 900 g/ha, read-out: Percent inhibition AMARE): 100%
- PPI activity (GR80) AMARE (AMARE (redroot pigweed); [6]): 100 g/ha
- inhibition at 30 g/ha (DATST (jimsonweed); Datura stramonium, PPI application, 30 g/ha, read-out: Percent inhibition DATST): 30%
- inhibition at 100 g/ha (DATST (jimsonweed); Datura stramonium, PPI application, 100 g/ha, read-out: Percent inhibition DATST): 60%
- inhibition at 300 g/ha (DATST (jimsonweed); Datura stramonium, PPI application, 300 g/ha, read-out: Percent inhibition DATST): 100%
- inhibition at 900 g/ha (DATST (jimsonweed); Datura stramonium, PPI application, 900 g/ha, read-out: Percent inhibition DATST): 100%
- PPI activity (GR80) DATST (DATST (jimsonweed); [6]): 100 g/ha
- inhibition at 30 g/ha ([4]; Panicum miliaceum, PPI application, 30 g/ha, read-out: Percent inhibition PANMI): 100%
- inhibition at 100 g/ha ([4]; Panicum miliaceum, PPI application, 100 g/ha, read-out: Percent inhibition PANMI): 100%
- inhibition at 300 g/ha ([4]; Panicum miliaceum, PPI application, 300 g/ha, read-out: Percent inhibition PANMI): 100%
- inhibition at 900 g/ha ([4]; Panicum miliaceum, PPI application, 900 g/ha, read-out: Percent inhibition PANMI): 100%
- PPI activity GR80, PANMI [4, 7]: 10 g/ha
- inhibition at 30 g/ha (PANDI (fall panicum); Panicum dichotomiflorum, PPI application, 30 g/ha, read-out: Percent inhibition PANDI): 95%
- inhibition at 100 g/ha (PANDI (fall panicum); Panicum dichotomiflorum, PPI application, 100 g/ha, read-out: Percent inhibition PANDI): 100%
- inhibition at 300 g/ha (PANDI (fall panicum); Panicum dichotomiflorum, PPI application, 300 g/ha, read-out: Percent inhibition PANDI): 100%
- inhibition at 900 g/ha (PANDI (fall panicum); Panicum dichotomiflorum, PPI application, 900 g/ha, read-out: Percent inhibition PANDI): 100%
- PPI activity GR80, PANDI (PANDI (fall panicum); [7]): 30 g/ha
- inhibition at 30 g/ha (POLCO (wild buckwheat); Fallopia convolvulus, weed, PPI application, 30 g/ha, read-out: Percent inhibition POLCO): 0%
- inhibition at 100 g/ha (POLCO (wild buckwheat); Fallopia convolvulus, weed, PPI application, 100 g/ha, read-out: Percent inhibition POLCO): 0%
- inhibition at 300 g/ha (POLCO (wild buckwheat); Fallopia convolvulus, weed, PPI application, 300 g/ha, read-out: Percent inhibition POLCO): 85%
- inhibition at 900 g/ha (POLCO (wild buckwheat); Fallopia convolvulus, weed, PPI application, 900 g/ha, read-out: Percent inhibition POLCO): 100%
- PPI activity GR80, POLCO (POLCO (wild buckwheat); [7]): 300 g/ha
- inhibition at 30 g/ha (SINAR (wild mustard) [5]; Brassica, weed, PPI application, 30 g/ha, read-out: Percent inhibition SINAR): 100%
- inhibition at 100 g/ha (SINAR (wild mustard) [5]; Brassica, weed, PPI application, 100 g/ha, read-out: Percent inhibition SINAR): 95%
- inhibition at 300 g/ha (SINAR (wild mustard) [5]; Brassica, weed, PPI application, 300 g/ha, read-out: Percent inhibition SINAR): 100%
- inhibition at 900 g/ha (SINAR (wild mustard) [5]; Brassica, weed, PPI application, 900 g/ha, read-out: Percent inhibition SINAR): 80%
- PPI activity GR80, SINAR (SINAR (wild mustard) [5]; [7]): 100 g/ha
- inhibition at 30 g/ha (ALOMY (blackgrass); Alopecurus myosuroides, weed, PPI application, 30 g/ha, read-out: Percent inhibition ALOMY): 0%
- inhibition at 100 g/ha (ALOMY (blackgrass); Alopecurus myosuroides, weed, PPI application, 100 g/ha, read-out: Percent inhibition ALOMY): 95%
- inhibition at 300 g/ha (ALOMY (blackgrass); Alopecurus myosuroides, weed, PPI application, 300 g/ha, read-out: Percent inhibition ALOMY): 100%
- inhibition at 900 g/ha (ALOMY (blackgrass); Alopecurus myosuroides, weed, PPI application, 900 g/ha, read-out: Percent inhibition ALOMY): 100%
- PPI activity GR80, ALOMY (ALOMY (blackgrass); [7]): 100 g/ha
- inhibition at 30 g/ha (BROTE (downy brome); Bromus tectorum, weed, PPI application, 30 g/ha, read-out: Percent inhibition BROTE): 0%
- inhibition at 100 g/ha (BROTE (downy brome); Bromus tectorum, weed, PPI application, 100 g/ha, read-out: Percent inhibition BROTE): 0%
- inhibition at 300 g/ha (BROTE (downy brome); Bromus tectorum, weed, PPI application, 300 g/ha, read-out: Percent inhibition BROTE): 65%
- inhibition at 900 g/ha (BROTE (downy brome); Bromus tectorum, weed, PPI application, 900 g/ha, read-out: Percent inhibition BROTE): 99%
- PPI activity GR80, BROTE (BROTE (downy brome); [7]): 300 g/ha

SMILES: CCN(CC)C(=O)n1cnc(S(=O)(=O)C(F)(F)SC)n1 [Example 9]
- Pre-emergence activity (GR80) SOLNI (SOLNI (black nightshade)): 100 g/ha
- Pre-emergence activity GR80, GALAP [1]: [empty]
- Pre-emergence activity GR80, SINAR (SINAR (wild mustard) [2]): 300 g/ha
- Pre-emergence activity GR80, SASKR (SASKR (russian thistle)): 300 g/ha
- Pre-emergence activity GR80, LAMPU [3]: 300 g/ha
- Percent inhibition AMARE (AMARE (redroot pigweed); PPI application, 30 g/ha): 90%
- Percent inhibition AMARE (AMARE (redroot pigweed); PPI application, 100 g/ha): 100%
- Percent inhibition AMARE (AMARE (redroot pigweed); PPI application, 300 g/ha): 100%
- Percent inhibition AMARE (AMARE (redroot pigweed); PPI application, 900 g/ha): 100%
- Percent inhibition DATST (DATST (jimsonweed); PPI application, 30 g/ha): 0%
- Percent inhibition DATST (DATST (jimsonweed); PPI application, 100 g/ha): 0%
- Percent inhibition DATST (DATST (jimsonweed); PPI application, 300 g/ha): 80%
- Percent inhibition DATST (DATST (jimsonweed); PPI application, 900 g/ha): 100%
- Percent inhibition PANMI ([4]; PPI application, 30 g/ha): 60%
- Percent inhibition PANMI ([4]; PPI application, 100 g/ha): 80%
- Percent inhibition PANMI ([4]; PPI application, 300 g/ha): 100%
- Percent inhibition PANMI ([4]; PPI application, 900 g/ha): 100%
- Percent inhibition PANDI (PANDI (fall panicum); PPI application, 30 g/ha): 100%
- Percent inhibition PANDI (PANDI (fall panicum); PPI application, 100 g/ha): 100%
- Percent inhibition PANDI (PANDI (fall panicum); PPI application, 300 g/ha): 100%
- Percent inhibition PANDI (PANDI (fall panicum); PPI application, 900 g/ha): 100%
- Percent inhibition POLCO (POLCO (wild buckwheat); weed, PPI application, 30 g/ha): 0%
- Percent inhibition POLCO (POLCO (wild buckwheat); [8]): 0%
- Percent inhibition POLCO (POLCO (wild buckwheat); [9]): 95%
- Percent inhibition POLCO (POLCO (wild buckwheat); [10]): 100%
- Percent inhibition SINAR (SINAR (wild mustard) [5]; weed, PPI application, 30 g/ha): 100%
- Percent inhibition SINAR (SINAR (wild mustard) [5]; [8]): 100%
- Percent inhibition SINAR (SINAR (wild mustard) [5]; [9]): 70%
- Percent inhibition SINAR (SINAR (wild mustard) [5]; [10]): 100%
- Percent inhibition ALOMY (ALOMY (blackgrass); weed, PPI application, 30 g/ha): 40%
- Percent inhibition ALOMY (ALOMY (blackgrass); [8]): 95%
- Percent inhibition ALOMY (ALOMY (blackgrass); [9]): 100%
- Percent inhibition ALOMY (ALOMY (blackgrass); [10]): 100%
- Percent inhibition BROTE (BROTE (downy brome); weed, PPI application, 30 g/ha): 0%
- Percent inhibition BROTE (BROTE (downy brome); [8]): 0%
- Percent inhibition BROTE (BROTE (downy brome); [9]): 20%
- Percent inhibition BROTE (BROTE (downy brome); [10]): 95%
